The nature of data set [1]: Pharmacokinetics in male Wistar rats after an oral dose. Format: in vivo. To be noted: oral dose of ~20 mg/kg, solution in PEG 400/Ethanol/Water (40/15/45); for AUC / Cmax / Tmax / half-life: rat, plasma; for AUC: read-out: AUC(0-tldc) (area under the plasma concentration-time curve from zero time to the last detectable concentration); for Cmax: read-out: Cmax (the highest plasma concentration); for Tmax: read-out: tmax (time to reach the highest plasma concentration); for half-life: read-out: t½ (terminal elimination half-life) (converted).

Data set [2] concerns the target T1, NK3 receptors (Homo sapiens, UniProt P29371).
T1 construct: expressed in transfected cells; host or cells: CHO cells
T1 sequence (P29371 1-465): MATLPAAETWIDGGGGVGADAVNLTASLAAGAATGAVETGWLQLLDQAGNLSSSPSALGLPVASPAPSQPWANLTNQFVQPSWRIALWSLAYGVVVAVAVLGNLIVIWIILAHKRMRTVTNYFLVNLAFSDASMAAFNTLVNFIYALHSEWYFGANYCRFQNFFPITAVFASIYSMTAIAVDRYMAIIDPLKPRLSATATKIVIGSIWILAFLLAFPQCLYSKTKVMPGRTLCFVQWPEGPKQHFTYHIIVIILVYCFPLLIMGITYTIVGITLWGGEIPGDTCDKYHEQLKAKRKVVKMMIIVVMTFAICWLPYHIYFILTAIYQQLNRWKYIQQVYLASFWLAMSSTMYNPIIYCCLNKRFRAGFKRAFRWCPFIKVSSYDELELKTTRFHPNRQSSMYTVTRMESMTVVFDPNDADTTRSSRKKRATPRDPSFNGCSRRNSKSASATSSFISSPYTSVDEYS
The data set can be described thus: Inhibition of agonist-induced phosphatidylinositol turnover (inositol phosphates accumulation) in transfected CHO cells. Type of data set: cell-based. To be noted: CHO cells expressing NK3 receptors; 1 μM of tested compounds; pKB=log(dose ratio−1)−log[B]. The method, then:
2. Inhibition of Phosphatidylinositol Turnover in Transfected CHO Cells
The inhibitory effects of these compounds on agonist-induced phosphatidylinositol turnover was estimated by measuring their effects on inositol phosphates (IP) accumulation in CHO cells expressing NK3 receptors. Briefly, cells (10,000/well) were seeded in 96-well cell culture plates 24 hours before changing medium to EMEM/F-12 (w/Earle's salt, w/glutamine; GIBCOL) containing 10 μCi/mL [^3H]inositol. After overnight incubation with [^3H]inositol, medium was removed and cells were washed twice with assay buffer (MEM with 10 mM LiCl, 20 mM HEPES, and 1 mg/mL BSA). Cells were then incubated with various concentrations of agonists with or without 1 μM of tested compounds for 1 hour. Reactions were stopped by two washes with ice-cold PBS followed by the addition of 0.1 mL ice-cold 5% TCA to each well. The TCA extract was applied to a […] column containing AG 1-X8 resin (Bio-Rad) and washed three times with 5 mM myo-inositol. Inositol phosphates (IP) was eluted with 1 M ammonium formate/0.1 M formic acid. Radioactivity was determined by liquid scintillation counting. Data were analyzed with nonlinear curve fitting using KaleidaGraph software package (PCS Inc, Reading, Pa.). The pKB values in Table 2 were calculated according to the formula: pKB=log(dose ratio−1)−log[B].

Data set [3] deals with T2, human NK1 receptors (Homo sapiens, UniProt P25103).
T2 construct: expressed in transfected cells; host or cells: CHO cells
As to the kind of experiment: Receptor binding in transfected CHO cells (125I-labeled ligand displacement), NK1. To be noted: CHO cells expressing human NK1; 0.2 nM 125I-labeled ligand; 1 hour at room temperature. The method, then: (§1) 1. Receptor Binding in Transfected CHO Cells
(§2) CHO cells expressing either human NK1 or NK3 receptors were cultured in Ham's F-12 Nutrient Mixture supplemented with 10% fetal call serum and 1% penicillin/streptomycin. Cells were seeded to 96-well Wallac (Gaithersburg, Md.) rigid crosstalk corrected cell culture plate 1 day before experiment. On the day of each experiment, cells were washed twice with phosphate buffered saline (PBS) and appropriate agonists or antagonists were added and incubated in 0.2 nM ^125I-labeled ligand in PBS containing 0.4 mg/mL BSA, 0.08 mg/mL bacitracin, 0.004 mg/mL chymostatin, 0.004 mg/mL leupeptin, 1 μM thiorphan, 25 μM phosphoramidon, and 2 mM MnCl2. The cells were incubated for 1 hour at room temperature and the reactions terminated by two washes with ice cold PBS. Fifty microliters of 2% SDS followed by 175 μL of Ready Gel (Beckman) were added to each well. Plates were vortexed, and the radioactivity was quantified in a Wallac 1450 microbeta scintillation counter. Nonspecific binding was determined in the presence of 1 μM unlabeled corresponding ligand. Receptor binding data were analyzed with nonlinear curve fitting using KaleidaGraph software package (PCS Inc., Reading, Pa.). IC50 values were determined using a modified Hill equation, [formula]
(§3) where cold ligand represents unlabeled ligand, L represents the concentration of unlabeled ligand, n the Hill coefficient, and IC50 the concentration of unlabeled ligand that causes 50% inhibition of the total specific binding of 0.2 nM radiolabeled ligand.

The target in data set [4] is T1, NK3 receptors. As to the kind of experiment: Receptor binding in transfected CHO cells (125I-labeled ligand displacement), NK3. To be noted: CHO cells expressing human NK3; 0.2 nM 125I-labeled ligand; 1 hour at room temperature. The method, then: as §1, §2, §3

Molecules are shown by their SMILES.

T2 sequence (P25103 whole entry): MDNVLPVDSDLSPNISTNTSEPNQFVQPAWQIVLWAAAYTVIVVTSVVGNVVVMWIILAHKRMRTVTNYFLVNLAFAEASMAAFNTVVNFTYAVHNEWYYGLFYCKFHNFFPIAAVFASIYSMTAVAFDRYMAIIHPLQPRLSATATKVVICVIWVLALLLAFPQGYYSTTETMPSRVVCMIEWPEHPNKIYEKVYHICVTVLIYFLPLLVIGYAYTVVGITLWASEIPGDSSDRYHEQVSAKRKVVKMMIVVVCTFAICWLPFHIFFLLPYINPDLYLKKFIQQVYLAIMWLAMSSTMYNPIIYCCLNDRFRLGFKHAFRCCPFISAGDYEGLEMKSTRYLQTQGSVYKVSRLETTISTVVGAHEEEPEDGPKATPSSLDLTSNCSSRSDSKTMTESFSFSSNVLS

A word on the pKB: it is the negative decadic logarithm of the KB, by convention in mol/L. As to `Cl.O=C(c1ccccc1)N1CCCC(CCCN2CCC(O)(CS(=O)(=O)c3ccccc3)CC2)(c2ccc(Cl)c(Cl)c2)C1` (centres unmarked) [Compound 20-1], the “tmax (time to reach the highest plasma concentration)” value in data set [1] (mean) was 1.3 h. For the same compound, in data set [1] (mean (SD)), the “AUC(0-tldc) (area under the plasma concentration-time curve from zero time to the last detectable concentration)” value was 366 (140) ng · hr/mL and the “Cmax (the highest plasma concentration)” value was 74.0 (12.9) ng/mL. The pKB in data set [2] worked out at 8.2 ± 0.4.

For orientation: half-life means how long it takes for the measured level to halve. `CC(=O)N(C)C1(c2ccccc2)CCN(CCC[C@]2(c3ccc(Cl)c(Cl)c3)CCCN(C(=O)c3ccccc3)C2)CC1` [SR 142801, reference compound]: in data set [1] (mean (SD)), the AUC came out at 703 ng·h/mL and the Cmax is 133 ng/mL. Also, in data set [1] (mean), the Tmax is 1.8 h and the half-life was 5.3 h.

For orientation: IC50 means the point on the concentration scale where inhibition reaches its midpoint. High values mean weaker potency in that assay, low ones greater potency in that assay. For `Cl.O=C(c1ccccc1)N1CCCC(CCCN2CCC(O)(c3ccccc3)CC2)(c2ccc(Cl)c(Cl)c2)C1` (centres unmarked) [Compound 20-2, {3-(3,4-Dichlorophenyl)-3-[3-(4-hydroxy-4-phenyl-piperidin-1-yl)-propyl]-piperidin-1-yl}-phenyl-methanone monohydrochloride], in data set [1] (mean (SD)), the AUC is 716 ng·h/mL and the Cmax came out at 125 ng/mL. In data set [1] (mean), the Tmax is 1.3 h and the half-life was 7.4 h. The Kb in data set [2] was 5.01 nM. Moreover, the IC50 in data set [3] was above 1000 nM. In data set [4], this compound showed a concentration for half-maximal inhibition (IC50) of 6.2 ± 0.6 nM.

With `Cl.O=C(c1ccccc1)N1CCCC(CCCN2CCC(O)(CS(=O)(=O)c3ccccc3)CC2)(c2ccc(Cl)c(Cl)c2)C1` (centres unmarked) [Compound 20-1, {3-[3-(4-Benzensulfonylmethyl-4-hydroxy-piperidin-1-yl]-3-(3,4-dichlorophenyl)-piperidin-1-yl}-phenyl-methanone monohydrochloride], the IC50 in data set [3] was above 1000 nM; in data set [4] it was 5.9 ± 0.4 nM.

With `Cl.O=C(c1ccccc1)N1CCCC(CCCN2CCC(c3ccccc3)CC2)(c2ccc(Cl)c(Cl)c2)C1` (centres unmarked) [Compound 20-3, {3-(3,4-Dichlorophenyl)-3-[3-(4-phenyl-piperidin-1-yl)-propyl]-piperidin-1-yl}-phenyl-methanone monohydrochloride], the AUC in data set [1] (mean (SD)) is 572 ng·h/mL. The Cmax in data set [1] (mean (SD)) came to 107 ng/mL. The Tmax in data set [1] (mean) is 1.8 h. Further, the Kb in data set [2] is 12.6 nM. The IC50 in data set [3] is 694 ± 89 nM; in data set [4] it was 17.8 ± 1.5 nM.

The values above are taken from patent publication US6433178B1, “3-alkyl-3-phenyl-piperidines” (Warner-Lambert Company, priority 1996, dated 2002).
